Inhibition data for eight molecules are collected here from patent US20260184663A1, “INDENE COMPOUNDS, PHARMACEUTICAL COMPOSITIONS THEREOF, AND THEIR THERAPEUTIC APPLICATIONS” (NucMito Pharmaceuticals co. Ltd., priority 2022, published 2026).

Holding throughout (format): cell-based
Test [1] relates to SW480 (colon cancer). Nature of the test: Antiproliferative activity (CCK-8 cell viability), SW480. The following applies: Homo sapiens, 72 h, read-out: Antiproliferative activity in cancerous cells, SW480 (inhibition of cell growth); for inhibition at 3.3 µM: Compound concentration: 3.3 μM; for inhibition at 10 µM: Compound concentration: 10 μM. How it is done: (§1) The antiproliferative activity of a compound was determined in the following cell lines: MDA-MB-231 (breast cancer), HepG2 (liver cancer), SW480 (colon cancer), B16F10 (malignant melanoma), A431 (epidermoid carcinoma), A549 (lung adenocarcinoma), and HeLa (cervical cancer). MDA-MB-231, HepG2, SW480, B16F10, and A431 cells were cultured in Dulbecco's modified Eagle's medium (DMEM) containing 10% fetal bovine serum (FBS). HeLa cells were cultured in MEM/EBSS (MEM) containing 10% FBS. A549 cells were maintained in Kaighn's modification of Ham's F-12 medium containing 10% FBS. A Cell Counting Kit-8 (CCK-8) was used to measure the cell viability of different cells following treatment with the compound.
(§2) Briefly cells were seeded in a 96-well plate at a density of 2,000-5,000 cells/well. Following attachment, the cells were treated with the compound in media at a compound concentration of 3.3 μM, 10 μM, or 30 μM. After the cells were incubated at 37° C. for 72 h, a CCK-8 solution (10 μL) was added to each well. After incubation at 37° C. for 4 h, the absorbance value of each well was determined using a multi-well plate reader at 450 nm. The wells treated with DMSO were taken as a vehicle control. Data were also obtained similarly for all the replicates and the percentage of cell viability was determined with respect to the DMSO-treated cells. The results are summarized in Tables 2-4, wherein A represents no less than […] of cell growth; B represents no less than 30% but less than 50% inhibition of cell growth; and C represents less than 30% inhibition of cell growth.

Test [2] deals with HepG2 (liver cancer). Nature of the test: Antiproliferative activity (CCK-8 cell viability), HepG2. The following applies: Homo sapiens, 72 h, read-out: Antiproliferative activity in cancerous cells, HepG2 (inhibition of cell growth); for inhibition at 3.3 µM: Compound concentration: 3.3 μM; for inhibition at 10 µM: Compound concentration: 10 μM. How it is done: as §1, §2
Test [3] has as its system A549 (lung adenocarcinoma). Nature of the test: Antiproliferative activity (CCK-8 cell viability), A549. The following applies: Homo sapiens, 72 h, read-out: Antiproliferative activity in cancerous cells, A549 (inhibition of cell growth); for inhibition at 3.3 µM: Compound concentration: 3.3 μM; for inhibition at 10 µM: Compound concentration: 10 μM. The protocol:
as §1, §2

Test [4] concerns B16F10 (malignant melanoma). Nature of the test: Antiproliferative activity (CCK-8 cell viability), B16F10. The following applies: Mus musculus, 72 h, read-out: Antiproliferative activity in cancerous cells, B16F10 (inhibition of cell growth); for inhibition at 3.3 µM: B16-F10, Compound concentration: 3.3 μM; for inhibition at 10 µM: B16-F10, Compound concentration: 10 μM. How it is done: as §1, §2

Test [5] deals with A431 (epidermoid carcinoma). Nature of the test: Antiproliferative activity (CCK-8 cell viability), A431. The following applies: Homo sapiens, 72 h, read-out: Antiproliferative activity in cancerous cells, A431 (inhibition of cell growth); for inhibition at 3.3 µM: A-431, Compound concentration: 3.3 μM; for inhibition at 10 µM: A-431, Compound concentration: 10 μM. The protocol: as §1, §2

In test [6] the test system is HeLa (cervical cancer). Nature of the test: Antiproliferative activity (CCK-8 cell viability), HeLa. The following applies: Homo sapiens, 72 h, read-out: Antiproliferative activity in cancerous cells, HELA (inhibition of cell growth); for inhibition at 3.3 µM: Compound concentration: 3.3 μM; for inhibition at 10 µM: Compound concentration: 10 μM. The protocol: as §1, §2

For test [7], the system named is MDA-MB-231 (breast cancer). Put plainly: Antiproliferative activity (CCK-8 cell viability), MDA-MB-231. The following applies: Homo sapiens, 72 h; for inhibition at 3.3 µM: Compound concentration: 3.3 μM; for inhibition at 3.3 µM / inhibition at 10 µM: read-out: Antiproliferative activity in cancerous cells, MDA-MB-231 (inhibition of cell growth); for inhibition at 10 µM: Compound concentration: 10 μM. How it is done:
as §1, §2

In the case of `CC1=C(CC(=O)O)c2cc(F)ccc2/C1=C\c1ccc(OCCc2ccccc2)cc1` [B30, (Z)-2-(5-Fluoro-2-methyl-1-(4-phenethoxybenzylidene)-1H-inden-3-yl)acetic acid], the inhibition at 3.3 µM in test [1] was below 30%; in test [2], below 30%; in test [3], 30 to 50%; in test [4], below 30%; in test [5] it was at least 50%; in test [6], below 30%. Further, in test [7], the inhibition at 3.3 µM was below 30%. In addition, the inhibition at 10 µM in test [1] is at least 50%; in test [2], at least 50%; in test [3] it was at least 50%; in test [4], below 30%; in test [5] it was at least 50%; in test [6], at least 50%. The inhibition at 10 µM in test [7] is at least 50%.
Regarding `CC1=C(CC(=O)O)c2cc(F)ccc2/C1=C\c1ccc(OCCc2ccc(F)cc2)cc1` [B31, (Z)-2-(5-Fluoro-1-(4-(4-fluorophenethoxy)benzylidene)-2-methyl-1H-inden-3-yl)acetic acid], the inhibition at 3.3 µM in test [1] was below 30%; in test [2] it was below 30%; in test [3], 30 to 50%; in test [4], at least 50%; in test [5] it was 30 to 50%; in test [6], below 30%. Moreover, in test [7], the inhibition at 3.3 µM was below 30%. The inhibition at 10 µM in test [1] was below 30%; in test [2], at least 50%; in test [3], 30 to 50%; in test [4], at least 50%; in test [5] it was at least 50%; in test [6], at least 50%. For the same molecule, the inhibition at 10 µM in test [7] is at least 50%.
On to `CC1=C(CC(=O)O)c2cc(F)ccc2/C1=C\c1ccc(CCOc2ccccc2)cc1` [B32, (Z)-2-(5-Fluoro-2-methyl-1-(4-(2-phenoxyethyl)benzylidene)-1H-inden-3-yl)acetic acid], for which the inhibition at 3.3 µM in test [1] is 30 to 50%; in test [2], below 30%; in test [3] it was 30 to 50%; in test [4], 30 to 50%; in test [5], 30 to 50%; in test [6], below 30%. Further, in test [7], the inhibition at 3.3 µM was below 30%. Further, the inhibition at 10 µM in test [1] was 30 to 50%; in test [2], at least 50%; in test [3], at least 50%; in test [4], at least 50%; in test [5], at least 50%; in test [6] it was at least 50%. Moreover, in test [7], the inhibition at 10 µM is below 30%.
Take `CC1=C(CC(=O)O)c2cc(F)ccc2/C1=C\c1ccc(CCOc2ccc(F)cc2)cc1` [B33, (Z)-2-(5-Fluoro-1-(4-(2-(4-fluorophenoxy)ethyl)benzylidene)-2-methyl-1H-inden-3-yl)acetic acid]: the inhibition at 3.3 µM in test [1] is below 30%; in test [2] it was below 30%; in test [3] it was below 30%; in test [4] it was at least 50%; in test [5], at least 50%; in test [6], below 30%. Besides, in test [7], the inhibition at 3.3 µM was below 30%. Moreover, the inhibition at 10 µM in test [1] was 30 to 50%; in test [2], 30 to 50%; in test [3] it was 30 to 50%; in test [4], at least 50%; in test [5] it was at least 50%; in test [6] it was 30 to 50%. Besides, the inhibition at 10 µM in test [7] fell in the range of 30 to 50%.
As for `CC1=C(CC(=O)O)c2cc(F)ccc2/C1=C\c1ccc(CCOc2ccc(Cl)cc2)cc1` [B34, (Z)-2-(1-(4-(2-(4-Chlorophenoxy)ethyl)benzylidene)-5-fluoro-2-methyl-1H-inden-3-yl)acetic acid], the inhibition at 3.3 µM in test [1] is below 30%; in test [2], below 30%; in test [3], 30 to 50%; in test [4], 30 to 50%; in test [5], at least 50%; in test [6] it was below 30%. The inhibition at 3.3 µM in test [7] is below 30%. In addition, the inhibition at 10 µM in test [1], in test [2], in test [3], in test [4], in test [5] and in test [6] was at least 50% throughout. In addition, in test [7], the inhibition at 10 µM was below 30%.
On to `CC1=C(CC(=O)O)c2cc(F)ccc2/C1=C\c1ccc(OCCc2ccc(Cl)cc2)cc1` [B35, (Z)-2-(1-(4-(4-Chlorophenethoxy)benzylidene)-5-fluoro-2-methyl-1H-inden-3-yl)acetic acid], for which the inhibition at 3.3 µM in test [1] is below 30%; in test [2] it was 30 to 50%; in test [3], at least 50%; in test [4] it was at least 50%; in test [5], at least 50%; in test [6], below 30%. Moreover, in test [7], the inhibition at 3.3 µM is at least 50%. Also, the inhibition at 10 µM in test [1], in test [2], in test [3], in test [4], in test [5] and in test [6] was at least 50% throughout. The inhibition at 10 µM in test [7] was at least 50%.
As to `CC1=C(CC(=O)O)c2cc(F)ccc2/C1=C\c1ccc(CSc2nc3ccccc3[nH]2)cc1` [B44, (Z)-2-(1-(4-(((1H-Benzo[d]imidazol-2-yl)thio)methyl)benzylidene)-5-fluoro-2-methyl-1H-inden-3-yl)acetic acid], the inhibition at 3.3 µM in test [1] is 30 to 50%; in test [2], at least 50%; in test [3] it was below 30%; in test [4], at least 50%; in test [5], below 30%; in test [6] it was at least 50%. The inhibition at 3.3 µM in test [7] was at least 50%. In addition, the inhibition at 10 µM in test [1], in test [2], in test [3], in test [4], in test [5] and in test [6] was at least 50% each time. Also, in test [7], the inhibition at 10 µM is at least 50%.
Regarding `CC1=C(CC(=O)O)c2cc(F)ccc2/C1=C\c1ccc(CSc2ccc(F)cc2)cc1` [B45, (Z)-2-(5-Fluoro-1-(4-(((4-fluorophenyl)thio)methyl)benzylidene)-2-methyl-1H-inden-3-yl)acetic acid], the inhibition at 3.3 µM in test [1], in test [2], in test [3], in test [4], in test [5] and in test [6] was below 30% throughout. Further, the inhibition at 3.3 µM in test [7] is below 30%. Moreover, the inhibition at 10 µM in test [1] is at least 50%; in test [2], at least 50%; in test [3], below 30%; in test [4], at least 50%; in test [5], 30 to 50%; in test [6] it was at least 50%. The inhibition at 10 µM in test [7] was below 30%. For the same molecule, the inhibition at 30 µM in test [7] (Compound concentration: 30 μM, read-out: Antiproliferative activity in cancerous cells, MDA-MB-231) was below 30%.
